Reference: patent US10047076B2, “Halogen-substituted compounds” (BAYER CROPSCIENCE AKTIENGESELLSCHAFT, priority 2014, dated 2018)

How the values were obtained:
[1] = log P determination by HPLC on reversed-phase column (C18), EEC Directive 79/831 Annex V.A8, acidic (formic acid); format: physicochemical; conditions: HPLC method a), acetonitrile/water with formic acid
Description: ^1 The stated mass is the peak of the isotope pattern of the [M+H]^+ ion of the highest intensity; if the [M-H]^- ion was detected, the stated mass is identified with ^2. ^2 The stated mass is the peak of the isotope pattern of the [M-H]^- ion of the highest intensity. ^a) Note regarding the determination of the log P values and mass detection: The determination of the given log P values was carried out in accordance with EEC Directive 79/831 Annex V.A8 by HPLC (High Performance Liquid Chromatography) on a reversed-phase column (C18). […] Mass detection is effected by means of an […] system. ^b) Note regarding the determination of the retention time and mass detection: The stated retention times were determined on a reversed-phase column (C18) Shimadzu LCMS 2020; 50*3.0 Shimadzu shim-pack XR-ODS 2.2 micron; mobile phase A: water (0.05% TFA); mobile phase B: acetonitrile; linear gradient from 5% acetonitrile to 95% acetonitrile in 6.00 min, then 95% acetonitrile for a further 1.1 min; oven temperature 40° C.; flow rate: 1.0 ml/min. ^c) Note regarding the determination of the retention time and mass detection: Instrument: Waters ACQUITY SQD UPLC system; column. Waters Acquity UPLC HSS T3 1.8μ 50×1 mm; mobile phase A: 1 l of water+0.25 ml of 99% strength formic acid, mobile phase B: 1 l of acetonitrile+0.25 ml of 99% strength formic acid; gradient: 0.0 min 90% A→1.2 min 5% A→2.0 min 5% A oven: 50° C.; flow rate: 0.40 ml/min; UV detection: 208-400 nm. ^d) Note regarding the determination of the retention time and mass detection: […] The determination of the given log P values was carried out in accordance with EEC Directive 79/831 Annex V.A8 by HPLC (High Performance Liquid Chromatography) on a reversed-phase column (C18). […] Mass detection is effected by means of an […] system.

Phaedon cochleariae = Phaedon cochleariae spray test; conditions: larvae on Chinese cabbage leaf discs, after 7 days
Spodoptera frugiperda = Spodoptera frugiperda spray test; format: in vivo; conditions: 500 g/ha, caterpillars on maize leaf discs, after 7 days
Text: Solvent: 78.0 parts by weight of acetone

SMILES	logP [1]	other results
Cn1nc(C(F)(F)C(F)(F)F)c(C(F)(F)F)c1-c1nc(-c2cccc(C(=O)NCC(F)(F)F)c2)n[nH]1 [Ibg-3]	3.54	–
CN(C(=O)c1cccc(-c2cc(-c3c(C(F)(F)F)c(C(F)(F)C(F)(F)F)nn3C)nn2C)c1)C1CC1 [Iax-1, N-cyclopropyl-3-[1,2′-dimethyl-5′-(pentafluoroethyl)-4′-(trifluoromethyl)-1H,2′H-3,3′-bipyrazol-5-yl]-N-methylbenzamide]	–	efficacy (Phaedon cochleariae; 100 g/ha): 100%; chromatographic logP [1]: 4.13
CC(C)n1nc(-c2c(C(F)(F)F)c(C(F)(F)C(F)(F)F)nn2C)nc1-c1ccc(Cl)c(C(=O)NCC(F)(F)F)c1 [Ibh-7]	4.68	–
Cn1nc(C(F)(F)C(F)(F)F)c(C(F)(F)F)c1-c1noc(-c2ccc(Cl)c(C(=O)NC3CC3)c2)n1 [Ibe-1, 2-chloro-N-cyclopropyl-5-{3-[1-methyl-3-(pentafluoroethyl)-4-(trifluoromethyl)-1H-pyrazol-5-yl]-1,2,4-oxadiazol-5-yl}benzamide]	–	efficacy (Phaedon cochleariae; 500 g/ha): 100%; chromatographic logP [1]: 4.16; efficacy (Spodoptera frugiperda): 100%
CCn1nc(-c2ccc(Cl)c(C(=O)Nc3ccccc3)c2)nc1-c1c(C(F)(F)F)c(C(F)(F)C(F)(F)F)nn1C [Ibg-12]	4.85	–
Cn1nc(C(F)(F)C(F)(F)F)c(C(F)(F)F)c1-c1nc(-c2ccc(Cl)c(C(=O)NCc3ccccc3)c2)ns1 [Ibd-1]	5.00	–
Cn1nc(-c2ccc(Cl)c(C(=O)NC3CC3)c2)nc1-c1c(C(F)(F)F)c(C(F)(F)C(F)(F)F)nn1C [Ibg-7]	3.80	efficacy (Phaedon cochleariae; 500 g/ha): 100%
Cn1nc(C(F)(F)C(F)(F)F)c(C(F)(F)F)c1-c1nc(-c2ccc(Cl)c(C(=O)Nc3ccc(F)cc3)c2)ns1 [Ibd-2]	5.17	–
Cn1nc(C(F)(F)C(F)(F)F)c(C(F)(F)F)c1-c1nnc(-c2cccc(C(=O)NC3CC3)c2)s1 [Iaj-1, N-cyclopropyl-3-{5-[1-methyl-3-(pentafluoroethyl)-4-(trifluoromethyl)-1H-pyrazol-5-yl]-1,3,4-thiadiazol-2-yl}benzamide]	–	efficacy (Phaedon cochleariae; 500 g/ha): 100%; chromatographic logP [1]: 3.72
Cn1nc(C(F)(F)C(F)(F)F)c(C(F)(F)F)c1-c1nc(-c2cccc(C(=O)NC3CC3)c2)n[nH]1 [Ibg-2]	3.24	–
CCn1nc(-c2ccc(Cl)c(C(=O)NCC(F)(F)F)c2)nc1-c1c(C(F)(F)F)c(C(F)(F)C(F)(F)F)nn1C [Ibg-6]	4.41	–
CCn1nc(-c2c(C(F)(F)F)c(C(F)(F)C(F)(F)F)nn2C)nc1-c1ccc(Cl)c(C(=O)NCC(F)(F)F)c1 [Ibh-5]	4.32	efficacy (Phaedon cochleariae; 500 g/ha): 100%
CCn1nc(-c2c(C(F)(F)F)c(C(F)(F)C(F)(F)F)nn2C)nc1-c1ccc(Cl)c(C(=O)Nc2ccccc2)c1 [Ibh-13]	4.73	–
CN(C(=O)c1cccc(-c2cc(-c3c(C(F)(F)F)c(C(F)(F)C(F)(F)F)nn3C)n(C)n2)c1)C1CC1 [Iaw-1, N-cyclopropyl-3-[2,2′-dimethyl-5′-(pentafluoroethyl)-4′-(trifluoromethyl)-2H,2′H-3,3′-bipyrazol-5-yl]-N-methylbenzamide]	–	chromatographic logP [1]: 3.94
CCn1nc(-c2ccc(Cl)c(C(=O)NCc3ccccc3)c2)nc1-c1c(C(F)(F)F)c(C(F)(F)C(F)(F)F)nn1C [Ibg-9]	4.71	efficacy (Phaedon cochleariae; 500 g/ha): 100%
CCn1nc(-c2c(C(F)(F)F)c(C(F)(F)C(F)(F)F)nn2C)nc1-c1ccc(Cl)c(C(=O)NCc2ccccc2)c1 [Ibh-10]	4.59	–
CC(C)n1nc(-c2ccc(Cl)c(C(=O)NCc3ccccc3)c2)nc1-c1c(C(F)(F)F)c(C(F)(F)C(F)(F)F)nn1C [Ibg-8]	4.93	efficacy (Phaedon cochleariae; 500 g/ha): 100%
Cn1nc(-c2c(C(F)(F)F)c(C(F)(F)C(F)(F)F)nn2C)nc1-c1cccc(C(=O)NCc2ccccc2)c1 [Ibh-2, N-benzyl-3-{1-methyl-3-[1-methyl-3-(pentafluoroethyl)-4-(trifluoromethyl)-1H-pyrazol-5-yl]-1H-1,2,4-triazol-5-yl}benzamide]	–	chromatographic logP [1]: 4.16
Cn1nc(C(F)(F)C(F)(F)F)c(C(F)(F)F)c1-c1nc(-c2cccc(C(=O)NCc3ccccc3)c2)n[nH]1 [Ibg-1, N-benzyl-3-{5-[1-methyl-3-(pentafluoroethyl)-4-(trifluoromethyl)-1H-pyrazol-5-yl]-1H-1,2,4-triazol-3-yl}benzamide]	–	chromatographic logP [1]: 3.8
Cn1nc(C(F)(F)C(F)(F)F)c(C(F)(F)F)c1-c1cc(-c2ccc(Cl)c(C(=O)NCC(=O)NCC(F)(F)F)c2)no1 [Iap-6]	3.87	efficacy (Phaedon cochleariae; 100 g/ha): 100%
Cn1nc(-c2c(C(F)(F)F)c(C(F)(F)C(F)(F)F)nn2C)nc1-c1ccc(Cl)c(C(=O)NCc2ccccc2)c1 [Ibh-11]	4.29	–

SMILES	logP [1]	other results
CC(C)n1nc(-c2ccc(Cl)c(C(=O)Nc3ccccc3)c2)nc1-c1c(C(F)(F)F)c(C(F)(F)C(F)(F)F)nn1C [Ibg-11]	5.13	–
Cn1nc(C(F)(F)C(F)(F)F)c(C(F)(F)F)c1-c1nnc(-c2ccc(Cl)c(C(=O)Nc3ccccc3)c2)[nH]1 [Ibi-4]	4.13	–
Cn1nc(C(F)(F)C(F)(F)F)c(C(F)(F)F)c1-c1nnc(-c2ccc(Cl)c(C(=O)NCc3ccccc3)c2)[nH]1 [Ibi-1]	4.00	–
Cn1nc(-c2cccc(C(=O)NCc3ccccc3)c2)nc1-c1c(C(F)(F)F)c(C(F)(F)C(F)(F)F)nn1C [Ibg-15, N-benzyl-3-{1-methyl-5-[1-methyl-3-(pentafluoroethyl)-4-(trifluoromethyl)-1H-pyrazol-5-yl]-1H-1,2,4-triazol-3-yl}benzamide]	–	chromatographic logP [1]: 4.24
CC(C)n1nc(-c2c(C(F)(F)F)c(C(F)(F)C(F)(F)F)nn2C)nc1-c1ccc(Cl)c(C(=O)NC2CC2)c1 [Ibh-6]	4.39	efficacy (Phaedon cochleariae; 500 g/ha): 100%
Cn1nc(-c2ccc(Cl)c(C(=O)NCc3ccccc3)c2)nc1-c1c(C(F)(F)F)c(C(F)(F)C(F)(F)F)nn1C [Ibg-10]	4.43	–
Cn1nc(C(F)(F)C(F)(F)F)c(C(F)(F)F)c1-c1nnc(-c2ccc(Cl)c(C(=O)NCC(F)(F)F)c2)[nH]1 [Ibi-2]	3.73	–
CC(C)n1nc(-c2ccc(Cl)c(C(=O)NC3CC3)c2)nc1-c1c(C(F)(F)F)c(C(F)(F)C(F)(F)F)nn1C [Ibg-13]	4.35	efficacy (Phaedon cochleariae; 500 g/ha): 100%
Cn1nc(C(F)(F)C(F)(F)F)c(C(F)(F)F)c1-c1ncc(-c2cccc(C(N)=O)c2)s1 [Iaq-2]	3.38	–
Cn1nc(C(F)(F)C(F)(F)F)c(C(F)(F)F)c1-c1nnc(-c2ccc(Cl)c(C(=O)NC3CC3)c2)[nH]1 [Ibi-3]	3.40	–
CC(C)n1nc(-c2c(C(F)(F)F)c(C(F)(F)C(F)(F)F)nn2C)nc1-c1ccc(Cl)c(C(=O)Nc2ccccc2)c1 [Ibh-12]	5.23	–
Cn1nc(C(F)(F)C(F)(F)F)c(C(F)(F)F)c1-c1noc(-c2ccc(Cl)c(C(=O)NCc3ccccc3)c2)n1 [Ibe-2]	4.76	–
Cn1nc(C(F)(F)C(F)(F)F)c(C(F)(F)F)c1-c1ncc(-c2cccc(C(=O)NC3(C#N)CC3)c2)s1 [Iaq-1, N-(1-cyanocyclopropyl)-3-{2-[1-methyl-3-(pentafluoroethyl)-4-(trifluoromethyl)-1H-pyrazol-5-yl]-1,3-thiazol-5-yl}benzamide]	–	efficacy (Phaedon cochleariae; 100 g/ha): 100%; chromatographic logP [1]: 3.93
Cn1nc(-c2c(C(F)(F)F)c(C(F)(F)C(F)(F)F)nn2C)nc1-c1ccc(Cl)c(C(=O)Nc2ccccc2)c1 [Ibh-14]	4.42	–
Cn1nc(C(F)(F)C(F)(F)F)c(C(F)(F)F)c1-c1noc(-c2ccc(Cl)c(C(=O)Nc3ccc(F)cc3)c2)n1 [Ibe-3]	4.91	efficacy (Phaedon cochleariae; 500 g/ha): 100%
Cn1nc(-c2ccc(Cl)c(C(=O)NCC(F)(F)F)c2)nc1-c1c(C(F)(F)F)c(C(F)(F)C(F)(F)F)nn1C [Ibg-4]	4.14	–
CC(C)n1nc(-c2c(C(F)(F)F)c(C(F)(F)C(F)(F)F)nn2C)nc1-c1ccc(Cl)c(C(=O)NCc2ccccc2)c1 [Ibh-9]	4.98	–
Cn1nc(-c2ccc(Cl)c(C(=O)Nc3ccccc3)c2)nc1-c1c(C(F)(F)F)c(C(F)(F)C(F)(F)F)nn1C [Ibg-14]	4.56	–
Cn1nc(-c2c(C(F)(F)F)c(C(F)(F)C(F)(F)F)nn2C)nc1-c1ccc(Cl)c(C(=O)NC2CC2)c1 [Ibh-8]	3.67	efficacy (Phaedon cochleariae; 500 g/ha): 100%; efficacy (Spodoptera frugiperda): 83%
Cn1nc(C(F)(F)C(F)(F)F)c(C(F)(F)F)c1-c1nc(-c2ccc(Cl)c(C(=O)NC3CC3)c2)ns1 [Ibd-3, 2-chloro-N-cyclopropyl-5-{5-[1-methyl-3-(pentafluoroethyl)-4-(trifluoromethyl)-1H-pyrazol-5-yl]-1,2,4-thiadiazol-3-yl}benzamide]	–	efficacy (Phaedon cochleariae; 500 g/ha): 100%
